The structures appear in SMILES notation. Read-outs that look alike come from different tables or passages of the source.

Data set [1] has as its target T1, human recombinant Monoacylglycerol Lipase (Homo sapiens, UniProt Q99685).
T1 sequence (Q99685 1-303): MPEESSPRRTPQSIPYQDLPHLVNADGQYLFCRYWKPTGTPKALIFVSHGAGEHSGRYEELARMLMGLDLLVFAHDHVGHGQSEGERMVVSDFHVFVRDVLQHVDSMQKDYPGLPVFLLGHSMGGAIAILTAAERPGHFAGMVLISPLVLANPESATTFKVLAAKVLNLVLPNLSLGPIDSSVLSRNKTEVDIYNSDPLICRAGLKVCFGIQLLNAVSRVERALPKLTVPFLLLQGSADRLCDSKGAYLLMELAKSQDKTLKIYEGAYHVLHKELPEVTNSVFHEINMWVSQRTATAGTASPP
Nature of the data set: MAGL inactivation (enzyme progress curves, kinact/KI). In kind it is biochemical. The following applies: geometric mean. Here is the method: (§1) Assessment of MAGL inhibition utilizes human recombinant Monoacylglycerol Lipase and the fluorogenic substrate 7-hydroxycoumarinyl arachidonate (7-HCA, Biomol ST-502). 400 nL of a test compound at decreasing concentration (ranging from 150 μM down to 1.5 nM) was spotted into a 384-well back plate (PerkinElmer, 6007279) using a Labcyte Echo, followed by addition of 10 μL of MAGL enzyme in assay buffer (50 mM HEPES, pH 7.4, 100 mM NaCl, 5 mM MgCl2, 0.1% Triton X-100 and 25% glycerin). An equal volume of 7-HCA in assay buffer with 10% DMSO was added either immediately (T=0 min) or after a 30 minute incubation (T=30 min) to initiate the reaction. The final concentration of MAGL enzyme was […] and 7-HCA substrate was 5 μM. After these dilutions, the final concentration of the test compound ranged from 3 μM to 0.03 nM. The reaction was allowed to progress for 60 minutes, after which the plate was read at an Ex/Em of 340/465. Percent inhibitions were calculated based on control wells containing no compound (0% inhibition) and a control compound (e.g., a MAGL inhibitor whose activity is known or was previously reported in the literature, such as one with about 100% inhibition). IC50 values were generated based on a four parameter fit model using ABASE software from IDBS. See e.g., Wang, Y. et al., “A Fluorescence-Based Assay for Monoacylglycerol Lipase Compatible with Inhibitor Screening,” Assay and Drug Development Technologies, 2008, Vol. 6 (3) pp 387-393 (reporting an assay for measuring MAGL activity).
To measure MAGL inactivation, the same protocol for the (T=0 min) MAGL inhibition IC50 assay was performed with data collected every minute to acquire enzyme progress curves at decreasing concentrations of compound.

The next data set concerns the target T2, human recombinant FAAH (Homo sapiens, UniProt O00519).
T2 construct: purchased Cayman 10010183
T2 sequence (O00519 1-579): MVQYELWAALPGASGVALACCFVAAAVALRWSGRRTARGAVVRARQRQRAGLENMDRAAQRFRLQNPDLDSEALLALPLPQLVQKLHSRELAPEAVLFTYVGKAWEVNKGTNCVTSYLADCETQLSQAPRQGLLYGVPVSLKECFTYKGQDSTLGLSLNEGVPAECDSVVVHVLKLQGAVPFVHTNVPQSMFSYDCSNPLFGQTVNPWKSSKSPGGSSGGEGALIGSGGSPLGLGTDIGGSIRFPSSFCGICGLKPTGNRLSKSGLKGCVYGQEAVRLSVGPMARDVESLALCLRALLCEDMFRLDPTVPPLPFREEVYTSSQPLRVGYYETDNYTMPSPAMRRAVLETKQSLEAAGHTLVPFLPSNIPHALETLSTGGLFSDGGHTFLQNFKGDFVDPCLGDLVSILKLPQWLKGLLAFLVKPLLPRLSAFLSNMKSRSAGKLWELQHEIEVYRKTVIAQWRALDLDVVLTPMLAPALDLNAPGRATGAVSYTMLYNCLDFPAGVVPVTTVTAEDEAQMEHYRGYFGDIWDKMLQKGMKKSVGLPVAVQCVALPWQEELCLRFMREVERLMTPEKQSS
Nature of the data set: FAAH inhibition enzymatic assay (Arachidonoyl-AMC substrate). Format: biochemical. The note with it: 30 minute incubation; geometric mean; read-out: FAAH (T = 30 min) IC50. As to the method: Assessment of FAAH inhibition utilizes human recombinant FAAH and the fluorescent substrate, Arachidonoyl-AMC. 400 nL of a test compound at decreasing concentrations was spotted into a 384-well back plate (PerkinElmer, 6007279) using a Labcyte Echo, followed by addition of 10 μl of FAAH enzyme (Cayman 10010183) in assay buffer (50 mM Tris, pH 9.0, 1 mM EDTA, i.e. ethylenediaminetetraacetic acid). After a 30 minute incubation at room temperature, 10 μL of Arachidonyl-AMCA was added in assay buffer with 16% DMSO. […] The reaction was allowed to progress for 60 minutes, after which the plate was read on a Molecular Devices FlexStation reader at an Ex/Em of 355/460. Percent inhibitions were calculated based on controls wells containing either no compound (0% inhibition) or a control compound (e.g., an FAAH inhibitor whose activity is known or was previously reported in the literature, such as one with about 100% inhibition). IC50 values were generated based on a four parameter fit model using ABASE software from IDBS.

For data set [2], the target named is T1, human recombinant Monoacylglycerol Lipase. Nature of the data set: MAGL inhibition enzymatic assay (7-HCA fluorogenic substrate). In kind it is biochemical. The following applies: geometric mean. As to the method:
as §1

Data set [3] can be described thus: In vitro intrinsic clearance in human liver microsomes (HLM). In kind it is in vitro ADME. The following applies: pH 7.4, 1 μM substrate, NADPH, 37° C., read-out: HLM CLint, app. As to the method: Test Compounds (Example 1-3 and Comparative-Compounds 1-4) were prepared as solutions in DMSO. The final concentration of DMSO in the incubation was <0.1% (v/v). […] (all final concentrations) in a 384-well plate. The reaction mixture was pre-warmed at 37° C. for 10 min prior to initiation of the incubation. The incubation was quenched with acetonitrile containing internal standards at the following time points: 1, 4, 7, 12, 20, 25, 45, and 60 min (individual incubation plates per time point) with a subsequent addition of water. The samples were vortexed followed by centrifugation and the supernatant was analyzed by LC/MS-MS using multiple reaction monitoring. For control experiments, NADPH was omitted from the incubations.
The microsomal t½ (min) was obtained from a log-linear plot of the substrate depletion versus incubation time and was scaled to hepatic intrinsic clearance (CLint,app (μL/min/mg protein) using the following equation: […]

The nature of data set [4]: In vitro intrinsic clearance in human hepatocytes. In kind it is in vitro ADME. The following applies: 1 μM substrate, human hepatocytes 0.5 million viable cells per mL, 37° C. Here is the method:
Test Compounds (Example 1-3 and Comparative-Compounds 1-4) were prepared as solutions in DMSO at 3 mM which were then diluted in media containing WEM. The final concentration of DMSO in the incubation was 0.03% (v/v). The in vitro half-life (t½) of each compound was determined in incubations containing substrate (1 μM), human hepatocytes (0.5 million viable cells per mL final concentration) in media containing WEM, 50 mM HEPES buffer (pH 7.4), and 26 mM sodium bicarbonate at 37° C. (all final concentrations) in a 96-well plate. The reaction mixture was pre-warmed at 37° C. for 30 min prior to the initiation of the incubation. The incubation was quenched with acetonitrile containing internal standards at the following time points: 0, 5, 15, 30, 60, 120, and 240 min (individual incubation plates per time point). The samples were vortexed followed by centrifugation. An aliquot of supernatant was transferred to a clean 96-well plate and analyzed by LC/MS-MS using multiple reaction monitoring. For control experiments, hepatocytes were omitted from the incubations.
The hepatocyte t½ (min) was obtained from a log-linear plot of the substrate depletion versus incubation time and was scaled to hepatic intrinsic clearance (CLint,app (μL/min/million cells) using the following equation: […]

The nature of data set [5]: Dynamic vapor sorption (hygroscopicity). In kind it is physicochemical. The following applies: 25° C. As to the method: (§2) An automated vapor sorption analyzer (VTI SGA-CX; VTI scientific) was used to measure the hygroscopicity of the anhydrate of Form I of the invention. The microbalance was calibrated using a 100 mg standard weight. The relative humidity sensor was calibrated at 5.0, 11.3, 32.8, 52.8, 75.3, and 84.3% RH (25° C.) using saturated salt solutions, as well as 80% RH (25° C.) using polyvinylpyrrolidone. Approximately 8-10 mg of the powder sample was placed in the platinum sample pan and dried at 3% relative humidity (RH) at 25° C. with a heating rate of 1° C. per minute. The attainment of equilibrium was assumed when the weight change of the sample was <0.001 wt % in 5 min or by a maximum equilibration time of 120 minutes. […] Again, the attainment of equilibrium was assumed when the weight change of the sample was <0.001 wt % in 5 min or by a maximum equilibration time of 120 minutes. The weight gain at the end of the sorption cycle (90% RH) was calculated on the basis of the dry weight.
as §2, with “Moisture/Water sorption and desorption studies were conducted on automated” for “An automated”, “analyzer (TA instruments Q5000 SA).” for “analyzer (VTI SGA-CX; VTI scientific) was used to measure the hygroscopicity of the anhydrate of Form I of the invention.”, “salt solutions.” for “salt solutions, as well as 80% RH (25° C.) using polyvinylpyrrolidone.”, “Approximately 10-20” for “Approximately 8-10”, “at ≤3%” for “at 3%”, “C.” for “C. with a heating rate of 1° C. per minute.”

Where [6] appears, read: 30 minute incubation before substrate, read-out: MAGL (T = 30 min) IC50.
The mark [7] stands for this setting: substrate added immediately (T=0 min), read-out: MAGL (T = 0 min) IC50.

With `O=C(OC(C(F)(F)F)C(F)(F)F)N1CCC2(CCC(NS(=O)(=O)CC3CC3)CO2)CC1` (single isomer, unassigned; ent-1) [Example 4, 1,1,1,3,3,3-Hexafluoropropan-2-yl 3-{[(cyclopropylmethyl)sulfonyl]amino}-1-oxa-9-azaspiro[5.5]undecane-9-carboxylate, ENT-1], the “MAGL kinact/KI” value in data set [1] is 3110 1/s per M. Moreover, the IC50 was greater than 30 µM on human recombinant FAAH, 0.02 µM in data set [2] (setting [6]) and 0.162 µM in data set [2] (setting [7]).
For the compound `O=C(OC(C(F)(F)F)C(F)(F)F)N1CCC2(CCC(NS(=O)(=O)CC3CC3)CO2)CC1` (single isomer, unassigned; ent-2) [Example 5, 1,1,1,3,3,3-Hexafluoropropan-2-yl 3-{[(cyclopropylmethyl)sulfonyl]amino}-1-oxa-9-azaspiro[5.5]undecane-9-carboxylate, ENT-2], the “MAGL kinact/KI” value in data set [1] is 6930 1/s per M. In addition, the figures for the IC50 (on human recombinant FAAH; in data set [2] (setting [6]); in data set [2] (setting [7])) were greater than 30 µM, 0.0101 µM and 0.103 µM, respectively.
Regarding `O=C(OC(C(F)(F)F)C(F)(F)F)N1CCC2(CC1)C[C@@H](NS(=O)(=O)c1ccccc1)CO2` [Comparative-Compound 4, 1,1,1,3,3,3-hexafluoropropan-2-yl (3R)-3-[(phenylsulfonyl)amino]-1-oxa-8-azaspiro[4.5]decane-8-carboxylate], the microsomal CLint at 1 μM in data set [3] came to 30.4 µL/min/mg. The “HHEPs CLint, app” value in data set [4] was 27.5 μL/min/million.
Take `O=C(OC(C(F)(F)F)C(F)(F)F)N1CCC2(CC1)C[C@@H](NS(=O)(=O)C1CC1)CO2` [Form A, 1,1,1,3,3,3-hexafluoropropan-2-yl(3R)-3-[(cyclopropylsulfonyl)amino]-1-oxa-8-azaspiro[4.5]decane-8-carboxylate]: the DVS weight gain in data set [5] (0-60% RH) is on record as 0-60% RH, 25° C.: <0.1% weight gain; in data set [5] (60% RH), 60% RH, 25° C.: <0.1% weight gain; in data set [5] (75% RH), 75% RH, 25° C.: <0.1% weight gain; in data set [5] (90% RH) it was 90% RH, 25° C.: <0.1% weight gain; in data set [5] (at up to 90% RH), “less than 0.1%”.
As for `O=C(OC(C(F)(F)F)C(F)(F)F)N1CCC2(CC1)C[C@@H](NS(=O)(=O)CC1CC1)CO2` [Form I, 1,1,1,3,3,3-Hexafluoropropan-2-yl (3R)-3-{[(cyclopropylmethyl)sulfonyl]amino}-1-oxa-8-azaspiro[4.5]decane-8-carboxylate], the DVS weight gain in data set [5] (0-60% RH) is 0-60% RH, 25° C.: <0.1% weight gain; in data set [5] (60% RH), 60% RH, 25° C.: <0.1% weight gain; in data set [5] (75% RH) it was 75% RH, 25° C.: <0.1% weight gain; in data set [5] (90% RH), 90% RH, 25° C.: <0.1% weight gain; in data set [5] (at up to 90% RH), “less than 0.1%”.

Source of the values: patent US20210309669A1, “Heterocyclic Spiro Compounds As MAGL Inhibitors” (Pfizer Inc., priority 2018, published 2021).
